From ChEMBL document CHEMBL2074559, “Inhibition of multidrug resistance-associated protein (MRP) activity by rifampicin in human multidrug-resistant lung tumor cells” (Cancer Lett, 1999)

How the values were obtained:
[1] = molecular target: T1, Multidrug resistance-associated protein 1 (Homo sapiens, UniProt P33527); experiment: TP_TRANSPORTER: increase in Calcein intracellular accumulation (Calcein: 0.5 uM, Rifampicin: 200 uM) in GLC4/ADR cells; assay type: functional, cell-based; details: glc-4/adr
T1 sequence (P33527 whole entry): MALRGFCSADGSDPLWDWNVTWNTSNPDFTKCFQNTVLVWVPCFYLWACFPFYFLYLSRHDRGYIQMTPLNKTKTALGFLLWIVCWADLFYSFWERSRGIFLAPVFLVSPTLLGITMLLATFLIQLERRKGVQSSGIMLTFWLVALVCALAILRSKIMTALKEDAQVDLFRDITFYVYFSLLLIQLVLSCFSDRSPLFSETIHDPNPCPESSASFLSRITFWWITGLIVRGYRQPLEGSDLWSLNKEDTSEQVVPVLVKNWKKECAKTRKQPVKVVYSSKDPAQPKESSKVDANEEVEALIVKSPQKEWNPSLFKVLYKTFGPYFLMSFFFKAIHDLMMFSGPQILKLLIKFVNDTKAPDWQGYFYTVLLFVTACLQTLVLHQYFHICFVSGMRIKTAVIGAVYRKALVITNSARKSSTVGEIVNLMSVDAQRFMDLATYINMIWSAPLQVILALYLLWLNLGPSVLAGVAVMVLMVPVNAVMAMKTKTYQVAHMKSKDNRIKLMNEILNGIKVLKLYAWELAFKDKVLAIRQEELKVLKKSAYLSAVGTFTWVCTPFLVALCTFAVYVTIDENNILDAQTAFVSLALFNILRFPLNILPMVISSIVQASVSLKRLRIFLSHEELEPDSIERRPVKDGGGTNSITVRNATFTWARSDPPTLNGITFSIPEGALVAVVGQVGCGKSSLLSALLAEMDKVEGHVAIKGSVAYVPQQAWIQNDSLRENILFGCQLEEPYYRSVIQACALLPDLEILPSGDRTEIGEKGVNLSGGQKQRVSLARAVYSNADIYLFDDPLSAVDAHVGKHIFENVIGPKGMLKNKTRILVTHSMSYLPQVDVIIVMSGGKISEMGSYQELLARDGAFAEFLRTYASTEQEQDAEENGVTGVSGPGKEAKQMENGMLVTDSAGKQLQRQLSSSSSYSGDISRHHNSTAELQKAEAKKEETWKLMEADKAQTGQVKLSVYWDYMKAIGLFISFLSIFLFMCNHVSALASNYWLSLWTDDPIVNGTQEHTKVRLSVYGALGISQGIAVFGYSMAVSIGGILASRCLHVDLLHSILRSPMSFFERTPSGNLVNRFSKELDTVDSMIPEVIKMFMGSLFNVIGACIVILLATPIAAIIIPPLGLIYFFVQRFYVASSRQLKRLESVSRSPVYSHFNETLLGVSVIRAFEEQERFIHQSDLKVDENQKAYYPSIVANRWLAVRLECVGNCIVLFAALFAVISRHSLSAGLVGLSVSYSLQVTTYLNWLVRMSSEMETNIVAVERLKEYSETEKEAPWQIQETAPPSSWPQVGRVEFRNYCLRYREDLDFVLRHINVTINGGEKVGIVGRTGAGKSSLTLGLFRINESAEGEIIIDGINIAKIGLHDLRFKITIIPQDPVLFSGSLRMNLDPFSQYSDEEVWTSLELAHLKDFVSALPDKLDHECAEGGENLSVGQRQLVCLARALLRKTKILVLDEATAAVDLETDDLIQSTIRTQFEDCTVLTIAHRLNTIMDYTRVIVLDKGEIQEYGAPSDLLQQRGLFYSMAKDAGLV

[2] = molecular target: T1, Multidrug resistance-associated protein 1; experiment: TP_TRANSPORTER: increase in Calcein intracellular accumulation (Calcein: 0.5 uM, Rifamycin SV: 200 uM) in GLC4/ADR cells; assay type: functional, cell-based; details: glc-4/adr

Row | SMILES | Activity [1] [%] | Activity [2] [%]
1 | CO[C@H]1/C=C/O[C@@]2(C)Oc3c(C)c(O)c4c(O)c(c(/C=N/N5CCN(C)CC5)c(O)c4c3C2=O)NC(=O)/C(C)=C\C=C\[C@H](C)[C@H](O)[C@@H](C)[C@@H](O)[C@@H](C)[C@H](OC(C)=O)[C@@H]1C [RIFAMPIN] | 110 | –
2 | CO[C@H]1/C=C/O[C@@]2(C)Oc3c(C)c(O)c4c(O)c(cc(O)c4c3C2=O)NC(=O)/C(C)=C\C=C\[C@H](C)[C@H](O)[C@@H](C)[C@@H](O)[C@@H](C)[C@H](OC(C)=O)[C@@H]1C [RIFAMYCIN] | – | 110
